Measurements taken from the supplement of paper PMC9663587.

Assays:
[1] = compound: T1, CN(C)C(=O)c1cc2cnc(Nc3ccc(N4CCNCC4)cn3)nc2n1C1CCCC1 [LEE011/Ribociclib]; test: GR value, 72 h; higher = faster growth (1 = untreated, <0 = killing);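 further: breast cancer and non-malignant breast epithelial lines, nine half-log doses, viable cells counted by Hoechst and LIVE/DEAD dye imaging versus time-zero plates and DMSO controls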
[2] = compound: CCc1cnn2c(NCc3ccc[n+]([O-])c3)cc(N3CCCC[C@H]3CCO)nc12; test: as above
[3] = compound: CCN1CCN(Cc2ccc(Nc3ncc(F)c(-c4cc(F)c5nc(C)n(C(C)C)c5c4)n3)nc2)CC1; test: as above
[4] = compound: CC(=O)c1c(C)c2cnc(Nc3ccc(N4CCNCC4)cn3)nc2n(C2CCCC2)c1=O; test: as above
[5] = compound: CC(=O)c1c(C)c2cnc(Nc3ccc(N4CCN(CCOCCOCCOCCNC(=O)COc5cccc6c5C(=O)N(C5CCC(=O)NC5=O)C6=O)CC4)cn3)nc2n(C2CCCC2)c1=O [BSJ-03-123]; test: as above
[6] = compound: CCOc1cc2ncc(C#N)c(Nc3ccc(OCc4ccccn4)c(Cl)c3)c2cc1NC(=O)/C=C/CN(C)C [Neratinib/HKI272]; test: as above
[7] = compound: T2, CN1CC[C@H](c2c(O)cc(O)c3c(=O)cc(-c4ccccc4Cl)oc23)[C@H](O)C1 [Flavopiridol]; test: as above
[8] = compound: CN(C)C/C=C/C(=O)Nc1ccc(C(=O)Nc2cccc(Nc3ncc(Cl)c(-c4c[nH]c5ccccc45)n3)c2)cc1 [THZ1]; test: as above
[9] = compound: T1, LEE011/Ribociclib; test: increase in dead-cell fraction, 72 h; higher = more death;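 further: breast cancer cell lines in 384-well plates, stained with Hoechst plus LIVE/DEAD far red dye and imaged, cells above an LDR intensity threshold counted dead, Hoechst-negative corpses included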
[10] = compound: CCN1CCN(Cc2ccc(Nc3ncc(F)c(-c4cc(F)c5nc(C)n(C(C)C)c5c4)n3)nc2)CC1; test: as above
[11] = compound: CC(=O)c1c(C)c2cnc(Nc3ccc(N4CCNCC4)cn3)nc2n(C2CCCC2)c1=O; test: as above
[12] = compound: T2, Flavopiridol; test: as above

For SUM159, the GR value ([1]; 0.001 µM) was 0.942 GR, the GR value ([1]; 0.003162 µM) was 0.892 GR and the GR value ([1]; 0.01 µM) was 0.835 GR. It also gave a GR value ([1]; 0.03162 µM) of 0.814 GR, a GR value ([1]; 0.1 µM) of 0.786 GR and a GR value ([1]; 0.3162 µM) of 0.73 GR. For the same cell line, the GR value ([1]; 1 µM) was 0.769 GR, the GR value ([1]; 3.162 µM) was 0.63 GR and the GR value ([1]; 10 µM) was 0.449 GR. The GR value ([2]; 0.0001 µM) was 1.01 GR, the GR value ([2]; 0.0003162 µM) was 1.01 GR and the GR value ([2]; 0.001 µM) was 1.02 GR. It also gave a GR value ([2]; 0.003162 µM) of 1.02 GR, a GR value ([2]; 0.01 µM) of 0.937 GR and a GR value ([2]; 0.03162 µM) of -0.0092 GR. It also gave a GR value ([2]; 0.1 µM) of -0.0413 GR, a GR value ([2]; 0.3162 µM) of -0.0777 GR and a GR value ([2]; 1 µM) of -0.119 GR. It also gave a GR value ([3]; 0.001 µM) of 0.989 GR, a GR value ([3]; 0.003162 µM) of 0.962 GR and a GR value ([3]; 0.01 µM) of 0.897 GR. The GR value ([3]; 0.03162 µM) was 0.773 GR, the GR value ([3]; 0.1 µM) was 0.662 GR and the GR value ([3]; 0.3162 µM) was 0.558 GR. It also gave a GR value ([3]; 1 µM) of 0.405 GR, a GR value ([3]; 3.162 µM) of 0.308 GR and a GR value ([3]; 10 µM) of -0.0742 GR. For the same cell line, the GR value ([4]; 0.0003162 µM) was 1 GR, the GR value ([4]; 0.001 µM) was 0.988 GR and the GR value ([4]; 0.003162 µM) was 0.987 GR. The GR value ([4]; 0.01 µM) was 0.947 GR, the GR value ([4]; 0.03162 µM) was 0.881 GR and the GR value ([4]; 0.1 µM) was 0.755 GR. For the same cell line, the GR value ([4]; 0.3162 µM) was 0.64 GR, the GR value ([4]; 1 µM) was 0.574 GR and the GR value ([4]; 3.162 µM) was 0.468 GR. For the same cell line, the GR value ([5]; 0.001 µM) was 0.918 GR, the GR value ([5]; 0.003162 µM) was 0.925 GR and the GR value ([5]; 0.01 µM) was 0.897 GR. For the same cell line, the GR value ([5]; 0.03162 µM) was 0.826 GR, the GR value ([5]; 0.1 µM) was 0.826 GR and the GR value ([5]; 0.3162 µM) was 0.797 GR. It also gave a GR value ([5]; 1 µM) of 0.687 GR, a GR value ([5]; 3.162 µM) of 0.526 GR and a GR value ([5]; 10 µM) of -0.042 GR. For the same cell line, the GR value ([6]; 0.0003162 µM) was 1.01 GR, the GR value ([6]; 0.001 µM) was 1.02 GR and the GR value ([6]; 0.003162 µM) was 1.02 GR. For the same cell line, the GR value ([6]; 0.01 µM) was 0.994 GR, the GR value ([6]; 0.03162 µM) was 0.96 GR and the GR value ([6]; 0.1 µM) was 0.927 GR. For the same cell line, the GR value ([6]; 0.3162 µM) was 0.851 GR, the GR value ([6]; 1 µM) was 0.705 GR and the GR value ([6]; 3.162 µM) was 0.507 GR. For the same cell line, the GR value ([7]; 0.0001 µM) was 1.01 GR, the GR value ([7]; 0.0003162 µM) was 0.998 GR and the GR value ([7]; 0.001 µM) was 0.973 GR. It also gave a GR value ([7]; 0.003162 µM) of 0.925 GR, a GR value ([7]; 0.01 µM) of 0.941 GR and a GR value ([7]; 0.03162 µM) of 0.885 GR. It also gave a GR value ([7]; 0.1 µM) of 0.631 GR, a GR value ([7]; 0.3162 µM) of 0.132 GR and a GR value ([7]; 1 µM) of -0.0516 GR. For the same cell line, the GR value ([8]; 0.0001 µM) was 1.01 GR, the GR value ([8]; 0.0003162 µM) was 0.974 GR and the GR value ([8]; 0.001 µM) was 0.974 GR. It also gave a GR value ([8]; 0.003162 µM) of 0.963 GR, a GR value ([8]; 0.01 µM) of 0.99 GR and a GR value ([8]; 0.03162 µM) of 0.955 GR. For the same cell line, the GR value ([8]; 0.1 µM) was 0.809 GR, the GR value ([8]; 0.3162 µM) was 0.646 GR and the GR value ([8]; 1 µM) was -0.112 GR. The “increase in dead-cell fraction” value ([9]; 0.001 µM) was -0.0013, the “increase in dead-cell fraction” value ([9]; 0.003162 µM) was 0.0006 and the “increase in dead-cell fraction” value ([9]; 0.01 µM) was 0.0082. For the same cell line, the “increase in dead-cell fraction” value ([9]; 0.03162 µM) was 0.013, the “increase in dead-cell fraction” value ([9]; 0.1 µM) was 0.0057 and the “increase in dead-cell fraction” value ([9]; 0.3162 µM) was 0.0121. For the same cell line, the “increase in dead-cell fraction” value ([9]; 1 µM) was 0.0033, the “increase in dead-cell fraction” value ([9]; 3.162 µM) was 0.0075 and the “increase in dead-cell fraction” value ([9]; 10 µM) was 0.0212. For the same cell line, the “increase in dead-cell fraction” value ([10]; 0.001 µM) was -0.0002, the “increase in dead-cell fraction” value ([10]; 0.003162 µM) was -0.0043 and the “increase in dead-cell fraction” value ([10]; 0.01 µM) was -0.0052. For the same cell line, the “increase in dead-cell fraction” value ([10]; 0.03162 µM) was -0.0042, the “increase in dead-cell fraction” value ([10]; 0.1 µM) was 0.0006 and the “increase in dead-cell fraction” value ([10]; 0.3162 µM) was 0.0029. For the same cell line, the “increase in dead-cell fraction” value ([10]; 1 µM) was 0.0118, the “increase in dead-cell fraction” value ([10]; 3.162 µM) was 0.0126 and the “increase in dead-cell fraction” value ([10]; 10 µM) was 0.447. For the same cell line, the “increase in dead-cell fraction” value ([11]; 0.0003162 µM) was 0, the “increase in dead-cell fraction” value ([11]; 0.001 µM) was 0.0001 and the “increase in dead-cell fraction” value ([11]; 0.003162 µM) was -0.0023. For the same cell line, the “increase in dead-cell fraction” value ([11]; 0.01 µM) was -0.0027, the “increase in dead-cell fraction” value ([11]; 0.03162 µM) was -0.009 and the “increase in dead-cell fraction” value ([11]; 0.1 µM) was -0.0094. The “increase in dead-cell fraction” value ([11]; 0.3162 µM) was -0.0078, the “increase in dead-cell fraction” value ([11]; 1 µM) was -0.0049 and the “increase in dead-cell fraction” value ([11]; 3.162 µM) was -0.0004. The “increase in dead-cell fraction” value ([12]; 0.0001 µM) was -0.0034, the “increase in dead-cell fraction” value ([12]; 0.0003162 µM) was -0.0008 and the “increase in dead-cell fraction” value ([12]; 0.001 µM) was -0.0034. For the same cell line, the “increase in dead-cell fraction” value ([12]; 0.003162 µM) was -0.0003, the “increase in dead-cell fraction” value ([12]; 0.01 µM) was -0.0024 and the “increase in dead-cell fraction” value ([12]; 0.03162 µM) was 0.012. For the same cell line, the “increase in dead-cell fraction” value ([12]; 0.1 µM) was 0.0436, the “increase in dead-cell fraction” value ([12]; 0.3162 µM) was 0.205 and the “increase in dead-cell fraction” value ([12]; 1 µM) was 0.208.
